Results from ChEMBL document CHEMBL4321783, “Recent Progress in Natural-Product-Inspired Programs Aimed To Address Antibiotic Resistance and Tolerance” (J Med Chem, 2019).
≈ marks a conversion by molar mass, not a printed value. Positions of bridges follow the written chain, without caps; N, C: chain ends. Non-standard residues stand in square brackets, D forms with d. Residues, ends and D or L forms follow the SMILES beside them. *: point of attachment. Phe(3,5-F2) = N[C@@H](Cc1cc(F)cc(F)c1)C(=O)O; Pip(4S-Me) = C[C@H]1CCN[C@H](C(=O)O)C1; Heptenoyl(2E) = CCCC/C=C/C(=O)*; aThr = C[C@H](O)[C@H](N)C(=O)O

Legend:
Klebsiella pneumoniae [1] = experiment: Antibacterial activity against Klebsiella pneumoniae; format: functional
Staphylococcus aureus [2] = experiment: Antibacterial activity against methicillin-resistant Staphylococcus aureus; format: functional
Pseudomonas aeruginosa [3] = experiment: Antibacterial activity against Pseudomonas aeruginosa; format: functional
Acinetobacter baumannii [4] = experiment: Antibacterial activity against Acinetobacter baumannii BD335 by broth microdilution method; format: functional
Escherichia coli [5] = experiment: Antibacterial activity against Escherichia coli BAA-2469 by broth microdilution method; format: functional
[6] = Drug accumulation in Escherichia coli MG1655 assessed per 10^12 CFU at 50 uM incubated for 10 mins under shaking condition by LC-MS/MS analysis; format: ADME, K-12 substr. MG1655
Escherichia coli [7] = experiment: Antibacterial activity against Escherichia coli ELZ4045 by broth microdilution method; format: functional
Klebsiella pneumoniae [8] = experiment: Antibacterial activity against Klebsiella pneumoniae 4-38 by broth microdilution method; format: functional
Staphylococcus aureus [9] = experiment: Antibacterial activity against Staphylococcus aureus NRS3 by broth microdilution method; format: functional
Acinetobacter baumannii [10] = experiment: Antibacterial activity against Acinetobacter baumannii IF101 by broth microdilution method; format: functional
Enterobacter cloacae [11] = experiment: Antibacterial activity against Enterobacter cloacae 1-60 by broth microdilution method; format: functional
Escherichia coli [12] = experiment: Antibacterial activity against Escherichia coli ELZ4239 by broth microdilution method; format: functional
Acinetobacter baumannii [13] = experiment: Antibacterial activity against Acinetobacter baumannii ATCC 19606 by broth microdilution method; format: functional; settings: ATCC 19606 = CIP 70.34 = JCM 6841
Staphylococcus aureus [14] = experiment: Antibacterial activity against Staphylococcus aureus ATCC 29213 by broth microdilution method; format: functional
Escherichia coli [15] = experiment: Antibacterial activity against Escherichia coli ELZ4072 by broth microdilution method; format: functional
Escherichia coli [16] = experiment: Antibacterial activity against Escherichia coli MG1655 by broth microdilution method; format: functional; settings: K-12 substr. MG1655
Pseudomonas aeruginosa [17] = experiment: Antibacterial activity against Pseudomonas aeruginosa PAO1 by broth microdilution method; format: functional
Escherichia coli [18] = experiment: Antibacterial activity against Escherichia coli ELZ4017 by broth microdilution method; format: functional
Enterobacter cloacae [19] = experiment: Antibacterial activity against Enterobacter cloacae ATCC 29893 by broth microdilution method; format: functional
Klebsiella pneumoniae [20] = experiment: Antibacterial activity against Klebsiella pneumoniae ATCC 27736 by broth microdilution method; format: functional
Enterobacter cloacae [21] = experiment: Antibacterial activity against Enterobacter cloacae 3-46 by broth microdilution method; format: functional
Escherichia coli [22] = experiment: Antibacterial activity against Escherichia coli ELZ4081 by broth microdilution method; format: functional
Klebsiella pneumoniae [23] = experiment: Antibacterial activity against Klebsiella pneumoniae 6-73 by broth microdilution method; format: functional
Escherichia coli [24] = experiment: Antibacterial activity against Escherichia coli ELZ4346 by broth microdilution method; format: functional
Acinetobacter baumannii [25] = experiment: Antibacterial activity against Acinetobacter baumannii KB349 by broth microdilution method; format: functional
Acinetobacter baumannii [26] = experiment: Antibacterial activity against Acinetobacter baumannii WO22 by broth microdilution method; format: functional
Acinetobacter baumannii [27] = experiment: Antibacterial activity against Acinetobacter baumannii KB304 by broth microdilution method; format: functional
Pseudomonas aeruginosa [28] = experiment: Antibacterial activity against Pseudomonas aeruginosa KW799/61 after 20 hrs under iron-rich medium by broth microdilution method; format: functional; settings: KW799/61, 20 h
Pseudomonas aeruginosa [29] = experiment: Antibacterial activity against Pseudomonas aeruginosa PAO1 after 20 hrs under iron-deficient medium by broth microdilution method; format: functional; settings: PAO1, 20 h
Pseudomonas aeruginosa [30] = experiment: Antibacterial activity against Pseudomonas aeruginosa PAO1 after 20 hrs under iron-rich medium by broth microdilution method; format: functional; settings: PAO1, 20 h
Pseudomonas aeruginosa [31] = experiment: Antibacterial activity against Pseudomonas aeruginosa PA4 after 20 hrs under iron-deficient medium by broth microdilution method; format: functional; settings: PA4, 20 h
Pseudomonas aeruginosa [32] = experiment: Antibacterial activity against Pseudomonas aeruginosa PA4 after 20 hrs under iron-rich medium by broth microdilution method; format: functional; settings: PA4, 20 h
Pseudomonas aeruginosa [33] = experiment: Antibacterial activity against Pseudomonas aeruginosa KW799 after 20 hrs under iron-deficient medium by broth microdilution method; format: functional; settings: KW799, 20 h
Pseudomonas aeruginosa [34] = experiment: Antibacterial activity against Pseudomonas aeruginosa KW799 after 20 hrs under iron-rich medium by broth microdilution method; format: functional; settings: KW799, 20 h
Pseudomonas aeruginosa [35] = experiment: Antibacterial activity against Pseudomonas aeruginosa KW799/61 after 20 hrs under iron-deficient medium by broth microdilution method; format: functional; settings: KW799/61, 20 h
Pseudomonas aeruginosa [36] = experiment: Growth inhibition of Pseudomonas aeruginosa PA14 after 24 hrs; format: functional, organism-based; settings: PA14, 24 h
Pseudomonas aeruginosa [37] = experiment: Growth inhibition of Pseudomonas aeruginosa PAO1 after 24 hrs; format: functional, organism-based; settings: PAO1, 24 h
Staphylococcus aureus [38] = experiment: Antibacterial activity against Staphylococcus aureus by CLSI protocol based dilution method; format: functional

CN(C)[C@@H]1C(O)=C(C(N)=O)C(=O)[C@@]2(O)C(O)=C3C(=O)c4c(O)c(NC(=O)CN5CCCC5)cc(F)c4C[C@H]3C[C@@H]12 [ERAVACYCLINE]
MIC (Klebsiella pneumoniae [1]): 0.03 to 16 µg/mL (≈ 0.0537 to 28.6 µM)
MIC (Staphylococcus aureus [2]): 0.015 to 4 µg/mL (≈ 0.0269 to 7.16 µM)
MIC (Pseudomonas aeruginosa [3]): 0.06 to 64 µg/mL

Cc1cc(=O)n(C)c2c3c4c(cc12)c(C)cc(=O)n4C(CN)CO3 (stereo unspecified)
MIC (Acinetobacter baumannii [4]): 2 to 16 µg/mL (≈ 6.15 to 49.2 µM)
MIC (Escherichia coli [5]): 0.5 to 16 µg/mL (≈ 1.54 to 49.2 µM)
Drug uptake [6]: 1114 nmol
MIC (Escherichia coli [7]): 0.5 to 16 µg/mL (≈ 1.54 to 49.2 µM)
MIC (Klebsiella pneumoniae [8]): 1 to 8 µg/mL (≈ 3.07 to 24.6 µM)
MIC (Staphylococcus aureus [9]): 0.03 to 0.5 µg/mL (≈ 0.0922 to 1.54 µM)
MIC (Acinetobacter baumannii [10]): 2 to 16 µg/mL (≈ 6.15 to 49.2 µM)
MIC (Enterobacter cloacae [11]): 0.5 to 4 µg/mL (≈ 1.54 to 12.3 µM)
MIC (Escherichia coli [12]): 0.5 to 16 µg/mL (≈ 1.54 to 49.2 µM)
MIC (Acinetobacter baumannii [13]): 2 to 16 µg/mL (≈ 6.15 to 49.2 µM)
MIC (Staphylococcus aureus [14]): 0.03 to 0.5 µg/mL (≈ 0.0922 to 1.54 µM)
MIC (Escherichia coli [15]): 0.5 to 16 µg/mL (≈ 1.54 to 49.2 µM)
MIC (Escherichia coli [16]): 0.5 to 16 µg/mL (≈ 1.54 to 49.2 µM)
MIC (Pseudomonas aeruginosa [17]): 16 µg/mL (≈ 49.2 µM)
MIC (Escherichia coli [18]): 0.5 to 16 µg/mL (≈ 1.54 to 49.2 µM)
MIC (Enterobacter cloacae [19]): 0.5 to 4 µg/mL (≈ 1.54 to 12.3 µM)
MIC (Klebsiella pneumoniae [20]): 1 to 8 µg/mL (≈ 3.07 to 24.6 µM)
MIC (Enterobacter cloacae [21]): 0.5 to 4 µg/mL (≈ 1.54 to 12.3 µM)
MIC (Escherichia coli [22]): 0.5 to 16 µg/mL (≈ 1.54 to 49.2 µM)
MIC (Klebsiella pneumoniae [23]): 1 to 8 µg/mL (≈ 3.07 to 24.6 µM)
MIC (Escherichia coli [24]): 0.5 to 16 µg/mL (≈ 1.54 to 49.2 µM)
MIC (Acinetobacter baumannii [25]): 2 to 16 µg/mL (≈ 6.15 to 49.2 µM)
MIC (Acinetobacter baumannii [26]): 2 to 16 µg/mL (≈ 6.15 to 49.2 µM)
MIC (Acinetobacter baumannii [27]): 2 to 16 µg/mL (≈ 6.15 to 49.2 µM)

CC1(C)S[C@@H]2[C@H](NC(=O)[C@H](N)c3ccc(O)cc3)C(=O)N2[C@H]1C(=O)O [AMOXICILLIN]
MIC (Pseudomonas aeruginosa [28]): > 100 µM
MIC (Pseudomonas aeruginosa [29]): > 100 µM
MIC (Pseudomonas aeruginosa [30]): > 100 µM
MIC (Pseudomonas aeruginosa [31]): > 100 µM
MIC (Pseudomonas aeruginosa [32]): > 100 µM
MIC (Pseudomonas aeruginosa [33]): > 100 µM
MIC (Pseudomonas aeruginosa [34]): > 100 µM
MIC (Pseudomonas aeruginosa [35]): > 100 µM

CCCCCC[C@H](CCCCC[C@@H](O)C(N)=O)OC(=O)[C@@H]1CC=CN1C(=O)c1ccccc1O
IC50 (Pseudomonas aeruginosa [36]): 67 to 130 nM
IC50 (Pseudomonas aeruginosa [37]): 1000 nM

CC(=O)Oc1cccc(C(=O)NCCCC(CCCNC(=O)c2cccc(OC(C)=O)c2OC(C)=O)(CCCNC(=O)c2cccc(OC(C)=O)c2OC(C)=O)N[C@@H](C(=O)N[C@@H]2C(=O)N3[C@@H]2SC(C)(C)[C@@H]3C(=O)O)c2ccc(O)cc2)c1OC(C)=O
MIC (Pseudomonas aeruginosa [28]): 12.5 to 50 µM (≈ 15.1 to 60.6 µg/mL)
MIC (Pseudomonas aeruginosa [29]): 0.05 to 0.39 µM (≈ 0.0606 to 0.472 µg/mL)
MIC (Pseudomonas aeruginosa [30]): 12.5 to 50 µM (≈ 15.1 to 60.6 µg/mL)
MIC (Pseudomonas aeruginosa [31]): 0.05 to 0.39 µM (≈ 0.0606 to 0.472 µg/mL)
MIC (Pseudomonas aeruginosa [32]): 12.5 to 50 µM (≈ 15.1 to 60.6 µg/mL)
MIC (Pseudomonas aeruginosa [33]): 0.05 to 0.39 µM (≈ 0.0606 to 0.472 µg/mL)
MIC (Pseudomonas aeruginosa [34]): 12.5 to 50 µM (≈ 15.1 to 60.6 µg/mL)
MIC (Pseudomonas aeruginosa [35]): 0.05 to 0.39 µM (≈ 0.0606 to 0.472 µg/mL)

CCCC/C=C/C(=O)N[C@@H](Cc1cc(F)cc(F)c1)C(=O)N[C@@H]1C(=O)N2CCC[C@H]2C(=O)N2CC[C@H](C)C[C@H]2C(=O)N[C@@H](C)C(=O)N2CCC[C@H]2C(=O)O[C@H]1C ({Heptenoyl(2E)}-[Phe(3,5-F2)][aThr]P[Pip(4S-Me)]AP; ester 2-C)
MIC (Staphylococcus aureus [38]): 0.0306 µM (≈ 0.024 µg/mL)
